{"source": "patent US8940800B2", "about": "“Pharmaceutical compositions with enhanced performance” (Bend Research, Inc., priority 2004, dated 2015)", "key": {"[1]": {"assay": "In vivo test of oral powder for constitution in beagle dogs (Example 2)", "conditions": "male, dog, plasma, Fed, 90 mgA Drug 1 oral OPC", "method": "Dispersions 1 and 4 were used as oral powders for constitution (OPC) for evaluating the performance of the dispersions in in vivo tests using male beagle dogs. The OPC was dosed as a suspension in a solution containing 0.5 wt % hydroxypropyl cellulose METHOCEL® (from Dow Chemical Co.), and was prepared as follows. First, 7.5 g of METHOCEL® was weighed out and added slowly to approximately 490 ml of water at 90-100° C. to form a METHOCEL® suspension. After all the METHOCEL® was added, 1000 mL of cool/room temperature water was added to the suspension, which was then placed in an ice water bath. When all of the METHOCEL® had dissolved, 2.55 g of polyoxyethylene 20 sorbitan monooleate (TWEEN 80) were added and the mixture stirred until the TWEEN 80 had dissolved, thus forming a stock suspension solution.\nTo form the OPC, sufficient quantity of the test composition to result in a 90 mgA amount of Drug 1 was accurately weighed and placed into a mortar. (“mgA” refers to mg of active drug.) A 20 mL quantity of the stock suspension solution was added to the mortar and the test composition was mixed with a pestle. Additional METHOCEL® suspension was added gradually with mixing until a total of 400 mL of the stock suspension solution had been added to the mortar. The suspension was then transferred to a flask, thus forming the OPC. This process was repeated for each of Dispersions 1 and 4. […]"}, "[2]": {"assay": "In vivo test of oral powder for constitution in beagle dogs (Example 10)", "conditions": "male, dog, plasma, Fed, 90 mgA Drug 1 oral OPC", "method": "Dispersion 17, consisting of 50:50 Drug 1:HPMCA Polymer 10, was dosed in male beagle dogs as an oral powder for constitution (OPC), by suspending the dispersion in a solution containing 0.5 wt % hydroxypropyl cellulose METHOCEL® (from Dow Chemical Co.), as follows. First, 7.5 g of METHOCEL® was weighed out and added slowly to approximately 490 ml of water at 90-100° C. to form a METHOCEL® suspension. After all the METHOCEL® was added, 1000 mL of cool/room temperature water was added to the suspension, which was then placed in an ice water bath. When all of the METHOCEL® had dissolved, 2.55 g of polyoxyethylene 20 sorbitan monooleate (TWEEN 80) were added and the mixture stirred until the TWEEN 80 had dissolved, thus forming a stock suspension solution.\nTo form the OPC, sufficient quantity of the test composition to result in a 90 mgA amount of Drug 1 was accurately weighed and placed into a mortar. A 20 mL quantity of the stock suspension solution was added to the mortar and the test composition was mixed with a pestle. Additional METHOCEL® suspension was added gradually with mixing until a total of 400 mL of the stock suspension solution had been added to the mortar. The suspension was then transferred to a flask, thus forming the OPC. In addition, an OPC containing 90 mgA of amorphous Drug 1 was prepared using the same procedure.\nSix male beagle dogs were each dosed with the OPC. […]"}, "[3]": {"assay": "Microcentrifuge dissolution test in PBS with NaTC/POPC, Drug 6 (Examples 8 and 12)", "assay_type": "physicochemical", "conditions": "37° C., 0 to 90 minutes", "method": "Dispersion 19 was also evaluated in a microcentrifuge dissolution test using the following procedures. For this test, 1.7 mg of Dispersion 19 and 1.27 mg of Crystalline Drug 6 was added to respective microcentrifuge tubes. The tubes were placed in a 37° C. temperature-controlled bath, and 1.8 mL phosphate buffered saline (PBS) at pH 6.5 and 290 mOsm/kg containing 7.3 mM sodium taurocholic acid and 1.4 mM of 1-palmitoyl-2-oleyl-sn-glycero-3-phosphocholine was added to each tube. The concentration of Drug 6 would have been […] if all of the drug had dissolved. The samples were quickly mixed using a vortex mixer for about 60 seconds. The samples were centrifuged at 13,000 G at 37° C. for 1 minute. The resulting supernatant solutions were then sampled and diluted 1:6 (by volume) with methanol and then analyzed by high-performance liquid chromatography (HPLC). The contents of the tubes were mixed on the vortex mixer and allowed to stand undisturbed at 37° C. until the next sample was taken. Samples were collected at 4, 10, 20, 40, 90, and 1200 minutes.\nThe concentrations of Drug 6 obtained in these samples were used to determine the values of the maximum drug concentration between 0 and 90 minutes (MDC90) and the area under the curve from 0 to 90 minutes (AUC90).\nA physical mixture of 75 wt % Drug 6 and 25 wt % HPMCA Polymer 16 was evaluated using the microcentrifuge dissolution test described in Example 8. The concentration of Drug 6 would have been 500 μgA/mL if all of the drug had dissolved. A control consisting of a physical mixture of 75 wt % Drug 6 and 25 wt % HPMC (Dow E3 Prem LV) was tested in the same test."}, "[4]": {"assay": "In vitro membrane permeation test, Drug 6 (Example 7)", "assay_type": "physicochemical", "conditions": "Drug 6, feed solution 0.5% NaTC/POPC, permeate 60 wt % decanol in decane", "method": "Dispersion 19 (75:25 Drug 6:Polymer 17) was evaluated in vitro using the membrane permeation test described for Example 6, except that the permeate solution consisted of 60 wt % decanol in decane. The feed solution was made using MFD solution (0.5% NaTC/POPC). The concentration of Drug 6 in the feed solution would have been 500 μg/mL (354 μgA/mL), if all of the drug had dissolved.\nAs a control, crystalline Drug 6 alone was used. The concentration of drug added would have been 354 μgA/mL Drug 6, if all of the drug had dissolved.\nThe maximum flux of drug across the membrane (in units of μg/cm^2-min) was determined from the data by estimating the tangent to the concentration versus time curve at time 0."}, "[5]": {"assay": "physchem", "conditions": "pH 6, aqueous buffer"}, "[6]": {"conditions": "not told"}, "[7]": {"conditions": "Table 16, PBS pH 6.5 with 7.3 mM NaTC/1.4 mM POPC"}, "[8]": {"conditions": "Table 20, PBS pH 6.5 with NaTC/POPC"}}, "note": "Like-named read-outs stand apart in the source and are kept apart here."}
{"molecule": "CCOC(=O)N1c2ccc(C(F)(F)F)cc2[C@@H](N(Cc2cc(C(F)(F)F)cc(C(F)(F)F)c2)C(=O)OC)C[C@H]1CC", "note": "[Amorphous Drug 1, [2R,4S]4-[(3,5-bis-trifluoromethyl-benzyl)-methoxycarbonyl-amino]-2-ethyl-6-trifluoromethyl-3,4-dihydro-2H-quinoline-1-carboxylic acid ethyl ester]", "values": [{"measurement": "Cmax", "setting": "[1]", "result": "190 ± 55", "unit": "ng/mL"}, {"measurement": "AUC(0-t)", "setting": "[1]; read-out: AUC(0-12)", "result": "640 ± 240", "unit": "ng·h/mL"}, {"measurement": "Cmax", "setting": "[2]", "result": "190 ± 55", "unit": "ng/mL"}, {"measurement": "AUC(0-t)", "setting": "[2]; read-out: AUC(0-12)", "result": "640 ± 240", "unit": "ng·h/mL"}]}
{"molecule": "CCCc1nn(C)c2c(=O)[nH]c(-c3cc(S(=O)(=O)N4CCN(C)CC4)ccc3OCC)nc12.O=C(O)CC(O)(CC(=O)O)C(=O)O", "note": "[Crystalline Drug 6, 1-[4-ethoxy-3-(6,7-dihydro-1-methyl-7-oxo-3-propyl-1H-pyrazolo[4,3-d]pyrimidin-5-yl)phenylsulphonyl]-4-methylpiperazine citrate salt]", "values": [{"measurement": "AUC90", "setting": "[3]; [7]", "result": "7,000 min * μgA/mL"}, {"measurement": "MDC,90", "setting": "[3]; [7]", "result": 98, "unit": "μgA/mL"}, {"measurement": "AUC90", "setting": "[3]; [8]", "result": "7,000 min * μgA/mL"}, {"measurement": "MDC,90", "setting": "[3]; [8]", "result": 98, "unit": "μgA/mL"}, {"measurement": "Maximum Drug Flux", "setting": "[4]", "result": 3.8, "unit": "μg/cm^2-min"}]}
{"molecule": "CCCc1nn(C)c2c(=O)[nH]c(-c3cc(S(=O)(=O)N4CCN(C)CC4)ccc3OCC)nc12.O=C(O)CC(O)(CC(=O)O)C(=O)O", "note": "[Drug 6, 1-[4-ethoxy-3-(6,7-dihydro-1-methyl-7-oxo-3-propyl-1H-pyrazolo[4,3-d]pyrimidin-5-yl)phenylsulphonyl]-4-methylpiperazine citrate salt]", "values": [{"measurement": "solubility", "setting": "[5]", "result": "~20", "unit": "µg/mL"}]}
{"molecule": "[2R,4S]4-[(3,5-bis-trifluoromethyl-benzyl)-methoxycarbonyl-amino]-2-ethyl-6-trifluoromethyl-3,4-dihydro-2H-quinoline-1-carboxylic acid ethyl ester [Crystalline Drug 1]", "values": [{"measurement": "Maximum Drug Flux", "setting": "[6]", "result": 0.16, "unit": "μg/cm^2-min"}]}
